Reference: ChEMBL document CHEMBL1201861, “Genomics of Drug Sensitity in Cancer screening data, Wellcome Trust Sanger Institute”

What was measured:
Test in all cases: cells
[1] = system: COLO-824; format: functional, cell-based, Homo sapiens; conditions: Homo sapiens, COLO-824
Description: SANGER: Inhibition of human COLO-824 cell growth in a cell viability assay.

[2] = system: CW-2; format: functional, cell-based, Homo sapiens; conditions: Homo sapiens, CW-2;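 further: growth inhibition of CW-2 cells, read out by a cell viability assay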
Description: SANGER: Inhibition of human CW-2 cell growth in a cell viability assay.

[3] = system: D-247MG; format: functional, cell-based; conditions: Homo sapiens
Description: SANGER: Inhibition of human D-247MG cell growth in a cell viability assay.

[4] = system: DB; format: functional, cell-based, Homo sapiens; conditions: Homo sapiens, DB
Description: SANGER: Inhibition of human DB cell growth in a cell viability assay.

[5] = system: DEL; format: functional, cell-based, Homo sapiens; conditions: Homo sapiens, DEL;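 further: growth inhibition of the human DEL cell line, read out with a cell viability assay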
[6] = system: DMS-114; format: functional, cell-based, Homo sapiens; conditions: Homo sapiens, DMS-114
[7] = system: DSH1; format: functional, cell-based; conditions: Homo sapiens;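 further: growth inhibition of human DSH1 cells, measured with a cell viability readout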
Description: SANGER: Inhibition of human DSH1 cell growth in a cell viability assay.

[8] = system: ES3; format: functional, cell-based, Homo sapiens; conditions: Homo sapiens, ES3;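 further: growth inhibition of ES3 cells, read out with a cell viability assay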
Description: SANGER: Inhibition of human ES3 cell growth in a cell viability assay.

[9] = system: ES8; format: functional, cell-based, Homo sapiens; conditions: Homo sapiens, ES8;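 further: growth inhibition of human ES8 cells, read out with a cell viability assay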
Description: SANGER: Inhibition of human ES8 cell growth in a cell viability assay.

[10] = system: EOL1; format: functional, cell-based, Homo sapiens; conditions: Homo sapiens, EOL1;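 further: growth inhibition of EoL-1 cells, read out by a cell viability assay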
[11] = system: GB-1; format: functional, cell-based, Homo sapiens; conditions: Homo sapiens, GB-1;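 further: growth of GB-1 cells judged by a viability assay, IC50 marks the concentration inhibiting growth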
Description: SANGER: Inhibition of human GB-1 cell growth in a cell viability assay.

[12] = system: GCIY; format: functional, cell-based, Homo sapiens; conditions: Homo sapiens, GCIY;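 further: growth inhibition of the human GCIY cell line, read out by a cell viability assay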
Description: SANGER: Inhibition of human GCIY cell growth in a cell viability assay.

[13] = system: GR-ST; format: functional, cell-based, Homo sapiens; conditions: Homo sapiens, GR-ST
Description: SANGER: Inhibition of human GR-ST cell growth in a cell viability assay.

[14] = system: GT3TKB; format: functional, cell-based, Homo sapiens; conditions: Homo sapiens, GT3TKB;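 further: growth inhibition of the cell line, read out with a cell viability assay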
Description: SANGER: Inhibition of human GT3TKB cell growth in a cell viability assay.

[15] = system: HAL-01; format: functional, cell-based, Homo sapiens; conditions: Homo sapiens, HAL-01;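 further: growth inhibition of human HAL-01 cells, read out with a cell viability assay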
Description: SANGER: Inhibition of human HAL-01 cell growth in a cell viability assay.

[16] = system: HH; format: functional, cell-based, Homo sapiens; conditions: Homo sapiens, HH
Description: SANGER: Inhibition of human HH cell growth in a cell viability assay.

[17] = system: JAR; format: functional, cell-based, Homo sapiens; conditions: Homo sapiens, JAR;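 further: growth inhibition of human JAR cells determined with a cell viability assay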
Description: SANGER: Inhibition of human JAR cell growth in a cell viability assay.

[18] = system: K5; format: functional, cell-based, Homo sapiens; conditions: Homo sapiens, K5
Description: SANGER: Inhibition of human K5 cell growth in a cell viability assay.

[19] = system: KM-H2; format: functional, cell-based, Homo sapiens; conditions: Homo sapiens, KM-H2;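 further: growth inhibition of KM-H2 cells, read out by a cell viability assay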
Description: SANGER: Inhibition of human KM-H2 cell growth in a cell viability assay.

[20] = system: LB1047-RCC; format: functional, cell-based, Homo sapiens; conditions: Homo sapiens, LB1047-RCC;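 further: inhibition of cell growth, determined with a cell viability assay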
Description: SANGER: Inhibition of human LB1047-RCC cell growth in a cell viability assay.

[21] = system: LB2241-RCC; format: functional, cell-based, Homo sapiens; conditions: Homo sapiens, LB2241-RCC;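 further: cell viability assay measuring how strongly the cultured human renal carcinoma line is prevented from growing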
[22] = system: LS-123; format: functional, cell-based, Homo sapiens; conditions: Homo sapiens, LS-123
[23] = system: LS-411N; format: functional, cell-based, Homo sapiens; conditions: Homo sapiens, LS-411N
[24] = system: MC116; format: functional, cell-based, Homo sapiens; conditions: Homo sapiens, MC116;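 further: growth inhibition of MC116 cells, read out with a cell viability assay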
Description: SANGER: Inhibition of human MC116 cell growth in a cell viability assay.

[25] = system: MHH-NB-11; format: functional, cell-based, Homo sapiens; conditions: Homo sapiens, MHH-NB-11;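 further: growth inhibition of human MHH-NB-11 cells, read out by a cell viability assay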
Description: SANGER: Inhibition of human MHH-NB-11 cell growth in a cell viability assay.

[26] = system: MHH-PREB-1; format: functional, cell-based, Homo sapiens; conditions: Homo sapiens, MHH-PREB-1;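 further: cell viability assay measuring inhibition of proliferation of human MHH-PREB-1 cells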
Description: SANGER: Inhibition of human MHH-PREB-1 cell growth in a cell viability assay.

[27] = system: MLMA; format: functional, cell-based, Homo sapiens; conditions: Homo sapiens, MLMA;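 further: growth inhibition of MLMA cells (human), determined through a cell viability readout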
Description: SANGER: Inhibition of human MLMA cell growth in a cell viability assay.

[28] = system: NB6; format: functional, cell-based, Homo sapiens; conditions: Homo sapiens, NB6;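 further: growth inhibition of NB6 cells, read out by a cell viability assay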
Description: SANGER: Inhibition of human NB6 cell growth in a cell viability assay.

[29] = system: NCI-H1650; format: functional, cell-based, Homo sapiens; conditions: Homo sapiens, NCI-H1650;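 further: growth inhibition of human NCI-H1650 cells measured by a cell viability assay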
Description: SANGER: Inhibition of human NCI-H1650 cell growth in a cell viability assay.

[30] = system: NCI-H526; format: functional, cell-based, Homo sapiens; conditions: Homo sapiens, NCI-H526;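 further: growth inhibition of the human NCI-H526 cell line, measured by a cell viability assay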
Description: SANGER: Inhibition of human NCI-H526 cell growth in a cell viability assay.

[31] = system: NMC-G1; format: functional, cell-based, Homo sapiens; conditions: Homo sapiens, NMC-G1;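 further: growth inhibition of the NMC-G1 cell line, measured with a cell viability read-out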
Description: SANGER: Inhibition of human NMC-G1 cell growth in a cell viability assay.

[32] = system: RS4-11; format: functional, cell-based, Homo sapiens; conditions: Homo sapiens, RS4-11;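 further: growth inhibition of RS4-11 cells, read out by a cell viability assay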
Description: SANGER: Inhibition of human RS4-11 cell growth in a cell viability assay.

[33] = system: SCC-15; format: functional, cell-based, Homo sapiens; conditions: Homo sapiens, SCC-15;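 further: growth inhibition of SCC-15 cells, read out with a cell viability assay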
[34] = system: SF-268; format: functional, cell-based, Homo sapiens; conditions: Homo sapiens, SF-268;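 further: growth inhibition of SF-268 cells determined with a cell viability assay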
Description: SANGER: Inhibition of human SF268 cell growth in a cell viability assay.

[35] = system: SJSA-1; format: functional, cell-based, Homo sapiens; conditions: Homo sapiens, SJSA-1;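 further: growth inhibition of human SJSA-1 cells, read out through a cell viability measurement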
Description: SANGER: Inhibition of human SJSA-1 cell growth in a cell viability assay.

[36] = system: SW872; format: functional, cell-based, Homo sapiens; conditions: Homo sapiens, SW872;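 further: growth inhibition of SW872 cells, read out by a viability assay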
Description: SANGER: Inhibition of human SW872 cell growth in a cell viability assay.

[37] = system: SW982; format: functional, cell-based; conditions: Homo sapiens;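 further: growth inhibition of SW982 cells, read out with a cell viability assay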
Description: SANGER: Inhibition of human SW982 cell growth in a cell viability assay.

[38] = system: 8-MG-BA; format: functional, cell-based, Homo sapiens; conditions: Homo sapiens, 8-MG-BA;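 further: growth inhibition of 8-MG-BA cells, read out with a cell viability assay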
Description: SANGER: Inhibition of human 8-MG-BA cell growth in a cell viability assay.

[39] = system: A253 cell line; format: functional, cell-based, Homo sapiens; conditions: Homo sapiens, A253;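 further: growth inhibition of A253 cells, read out with a cell viability assay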
Description: SANGER: Inhibition of human A253 cell growth in a cell viability assay.

[40] = system: A498; format: functional, cell-based, Homo sapiens; conditions: Homo sapiens, A498;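 further: growth inhibition of human A498 cells, read out with a cell viability assay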
Description: SANGER: Inhibition of human A498 cell growth in a cell viability assay.

[41] = system: BB65-RCC; format: functional, cell-based, Homo sapiens; conditions: Homo sapiens, BB65-RCC;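 further: growth inhibition of the cell line, measured with a cell viability assay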
Description: SANGER: Inhibition of human BB65-RCC cell growth in a cell viability assay.

[42] = system: BE-13; format: functional, cell-based, Homo sapiens; conditions: Homo sapiens, BE-13;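 further: growth inhibition of human BE-13 cells, measured with a cell viability assay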
Description: SANGER: Inhibition of human BE-13 cell growth in a cell viability assay.

[43] = system: BT-474; format: functional, cell-based, Homo sapiens; conditions: Homo sapiens, BT-474
Description: SANGER: Inhibition of human BT-474 cell growth in a cell viability assay.

[44] = system: C2BBe1; format: functional, cell-based, Homo sapiens; conditions: Homo sapiens, C2BBe1;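 further: growth inhibition of C2BBe1 cells, read out through a viability assay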
Description: SANGER: Inhibition of human C2BBe1 cell growth in a cell viability assay.

[45] = system: TE-11; format: functional, cell-based; conditions: Homo sapiens;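 further: growth inhibition of human TE-11 cells, read out by a cell viability assay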
Description: SANGER: Inhibition of human TE-11 cell growth in a cell viability assay.

[46] = system: TE-9; format: functional, cell-based, Homo sapiens; conditions: Homo sapiens, TE-9;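 further: cell growth inhibition, measured with a cell viability readout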
Description: SANGER: Inhibition of human TE-9 cell growth in a cell viability assay.

[47] = system: TGBC24TKB; format: functional, cell-based; conditions: Homo sapiens;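 further: growth inhibition of human TGBC24TKB cells, read out with a cell viability assay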
Description: SANGER: Inhibition of human TGBC24TKB cell growth in a cell viability assay.

[48] = system: TGW; format: functional, cell-based, Homo sapiens; conditions: Homo sapiens, TGW;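 further: growth inhibition of human TGW cells, read out with a cell viability assay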
Description: SANGER: Inhibition of human TGW cell growth in a cell viability assay.

[49] = system: no-10; format: functional, cell-based, Homo sapiens; conditions: Homo sapiens;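 further: growth inhibition of no-10 cells, read out with a cell viability assay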
Description: SANGER: Inhibition of human no-10 cell growth in a cell viability assay.

[50] = system: COLO-320-HSR; format: functional, cell-based, Homo sapiens; conditions: Homo sapiens, COLO-320-HSR;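 further: growth inhibition of COLO-320-HSR cells, determined with a cell viability assay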
Description: SANGER: Inhibition of human COLO-320-HSR cell growth in a cell viability assay.

[51] = system: COLO-684; format: functional, cell-based, Homo sapiens; conditions: Homo sapiens, COLO-684

Work on `Cc1cc(N2CCOCC2)cc2[nH]c(-c3c(NC[C@@H](O)c4cccc(Cl)c4)cc[nH]c3=O)nc12` yielded an IC50 [1] of over 5120 nM, an IC50 [2] of over 5120 nM and an IC50 [3] of over 5120 nM. For the same compound, the IC50 [4] was over 5120 nM, the IC50 [5] was 2700 nM and the IC50 [6] was over 5120 nM. For the same compound, the IC50 [7] was over 5120 nM, the IC50 [8] was over 5120 nM and the IC50 [9] was 2300 nM. It also gave an IC50 [10] of 1570 nM, an IC50 [11] of 495 nM and an IC50 [12] of 404 nM. For the same compound, the IC50 [13] was 3270 nM, the IC50 [14] was over 5120 nM and the IC50 [15] was 1120 nM. For the same compound, the IC50 [16] was over 5120 nM, the IC50 [17] was over 5120 nM and the IC50 [18] was 1780 nM. For the same compound, the IC50 [19] was over 5120 nM, the IC50 [20] was 642 nM and the IC50 [21] was over 5120 nM. The IC50 [22] was over 5120 nM, the IC50 [23] was 498 nM and the IC50 [24] was over 5120 nM. For the same compound, the IC50 [25] was over 5120 nM, the IC50 [26] was over 5120 nM and the IC50 [27] was 2010 nM. The IC50 [28] was over 5120 nM, the IC50 [29] was over 5120 nM and the IC50 [30] was over 5120 nM. For the same compound, the IC50 [31] was 4610 nM, the IC50 [32] was 1800 nM and the IC50 [33] was over 5120 nM. For the same compound, the IC50 [34] was 3040 nM, the IC50 [35] was 456 nM and the IC50 [36] was 1980 nM. The IC50 [37] was 718 nM, the IC50 [38] was 3930 nM and the IC50 [39] was over 5120 nM. For the same compound, the IC50 [40] was over 5120 nM, the IC50 [41] was over 5120 nM and the IC50 [42] was over 5120 nM. The IC50 [43] was over 5120 nM, the IC50 [44] was over 5120 nM and the IC50 [45] was 152 nM. For the same compound, the IC50 [46] was 2500 nM, the IC50 [47] was 275 nM and the IC50 [48] was 683 nM. For the same compound, the IC50 [49] was over 5120 nM, the IC50 [50] was 934 nM and the IC50 [51] was over 5120 nM.
Work on `C[C@@H](Oc1cc(-c2cnn(C3CCNCC3)c2)cnc1N)c1c(Cl)ccc(F)c1Cl` [CRIZOTINIB] yielded an IC50 [1] of over 2000 nM, an IC50 [2] of over 2000 nM and an IC50 [3] of over 2000 nM. For the same compound, the IC50 [4] was over 2000 nM, the IC50 [5] was 370 nM and the IC50 [6] was over 2000 nM. For the same compound, the IC50 [7] was over 2000 nM, the IC50 [8] was over 2000 nM and the IC50 [9] was over 2000 nM. For the same compound, the IC50 [10] was over 2000 nM, the IC50 [11] was over 2000 nM and the IC50 [12] was over 2000 nM. For the same compound, the IC50 [13] was over 2000 nM, the IC50 [14] was over 2000 nM and the IC50 [15] was over 2000 nM. For the same compound, the IC50 [16] was over 2000 nM, the IC50 [17] was over 2000 nM and the IC50 [18] was over 2000 nM. It also gave an IC50 [19] of over 2000 nM, an IC50 [20] of over 2000 nM and an IC50 [21] of over 2000 nM. The IC50 [22] was over 2000 nM, the IC50 [23] was over 2000 nM and the IC50 [24] was over 2000 nM. The IC50 [25] was over 2000 nM, the IC50 [26] was over 2000 nM and the IC50 [27] was over 2000 nM. The IC50 [28] was over 2000 nM, the IC50 [29] was over 2000 nM and the IC50 [30] was over 2000 nM. The IC50 [31] was over 2000 nM, the IC50 [32] was over 2000 nM and the IC50 [33] was over 2000 nM. The IC50 [34] was over 2000 nM, the IC50 [35] was over 2000 nM and the IC50 [36] was over 2000 nM. For the same compound, the IC50 [37] was over 2000 nM, the IC50 [38] was over 2000 nM and the IC50 [39] was over 2000 nM. It also gave an IC50 [40] of over 2000 nM, an IC50 [41] of over 2000 nM and an IC50 [42] of over 2000 nM. For the same compound, the IC50 [43] was over 2000 nM, the IC50 [44] was over 2000 nM and the IC50 [45] was over 2000 nM. The IC50 [46] was over 2000 nM, the IC50 [47] was over 2000 nM and the IC50 [48] was over 2000 nM. The IC50 [49] was over 2000 nM, the IC50 [50] was over 2000 nM and the IC50 [51] was over 2000 nM.
